Where a name gives a salt, the structure may show the parent alone.
How the values were obtained:
Candida albicans = experiment: MIC of LAE/SL mixtures (FIG. 7, FIG. 8A); format: cell-based; settings: Example 8, FIG. 8A; solubilized in DW
Method: MIC values of various mixtures of N^α-lauroyl arginine ethyl ester HCl salt and sucrose monolaurate in preventing the growth of Candida alibicans were determined. […] In comparing ratios of wt % of SL to wt % of LAE, ratios from 2:1 to 1:2 show enhancement compared to 100 wt % LAE.

S. aureus = settings: Example 8, FIG. 8A; solubilized in DW
Method: In Example 8, different pathogens were tested for MIC (Minimum Inhibitory Concentration) with formulations that comprise combinations of LAE and SL. […] In FIGS. 8A and 8B the active ingredients LAE and SL were solubilized in DW as indicated and were tested. FIG. 8A reports MIC combination of LAE and SL tested on Candida albicans fungi in duplicate and for gram positive S. aureus. FIG. 8B reports MIC on combinations of LAE/SL exposed to S. epidermidis.

S. epidermidis = experiment: MIC of LAE/SL mixtures (FIG. 8B); format: cell-based; settings: Example 8, FIG. 8B; solubilized in DW
Method: In Example 8, different pathogens were tested for MIC (Minimum Inhibitory Concentration) with formulations that comprise combinations of LAE and SL. […] In FIGS. 8A and 8B the active ingredients LAE and SL were solubilized in DW as indicated and were tested. […] FIG. 8B reports MIC on combinations of LAE/SL exposed to S. epidermidis.

P. aeruginosa = settings: literature reports (Musk et al.; Kim et al.); cited from earlier work
[1] = rats; cited from earlier work
[2] = system: Streptococcus pyogenes, Streptococcus mitis, Staphylococcus epidermidis, and E. coli; settings: 10 wt % of hexylene glycol, in vitro; cited from earlier work

## sucrose laurate [SL]
Candida albicans
  MIC, result in words: much higher MIC values than LAE or combinations of LAE/SL
S. aureus
  MIC, result in words: much higher MIC values than LAE or combinations of LAE/SL
S. epidermidis
  MIC, result in words: much higher MIC values than LAE or combinations of LAE/SL

## CCCCCCCCCCCC(=O)N[C@@H](CCCNC(=N)N)C(=O)OCC [LAE, N^α-lauroyl-L-arginine-ethyl ester]
P. aeruginosa
  biofilm formation, result in words: inhibited biofilm formation

## CCOC(=O)CC(O)(CC(=O)OCC)C(=O)OCC [triethyl citrate]
[1]
  oral LD50: 7.0 cc/kg

## Ferric ammonium citrate [reference compound]
P. aeruginosa
  biofilm formation, result in words: inhibited biofilm formation in a dose-dependent manner

## CC(O)CC(C)(C)O (stereo not shown) [hexylene glycol]
[2]
  killing power, comparison: equivalent to 30 wt % of 1,3 butylene glycol or propylene glycol

From patent publication US12035718B2, “Biofilm penetrating compositions and methods” (Nevada Naturals Inc., priority 2017, dated 2024)
